In the supplement of paper PMC10307832:

Legend:
Test in all cases: relative viability (nuclei count vs DMSO), 5 days (fraction); higher = more cells survive
Palbociclib + Trametinib = compound: CC(=O)c1c(C)c2cnc(Nc3ccc(N4CCNCC4)cn3)nc2n(C2CCCC2)c1=O [Palbociclib] + CC(=O)Nc1cccc(-n2c(=O)n(C3CC3)c(=O)c3c(Nc4ccc(I)cc4F)n(C)c(=O)c(C)c32)c1 [Trametinib] (partner 0.02 µM)
Summary of the method: (§1)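 Lung cancer cell lines in 1536-well plates got either a single drug or a fixed anchor-drug dose together with five library-drug doses (not always all listed) in √10 steps, by pin tool, on the day after seeding. Nuclei were counted after 5 days, and relative viability is the treated-to-vehicle ratio of nuclei counts. Values are medians of duplicate plates.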

Palbociclib + Navitoclax = compound: CC(=O)c1c(C)c2cnc(Nc3ccc(N4CCNCC4)cn3)nc2n(C2CCCC2)c1=O [Palbociclib] + CC1(C)CCC(c2ccc(Cl)cc2)=C(CN2CCN(c3ccc(C(=O)NS(=O)(=O)c4ccc(N[C@H](CCN5CCOCC5)CSc5ccccc5)c(S(=O)(=O)C(F)(F)F)c4)cc3)CC2)C1 [Navitoclax] (partner 0.5 µM)
Summary of the method: as §1

Palbociclib + Tozasertib = compound: CC(=O)c1c(C)c2cnc(Nc3ccc(N4CCNCC4)cn3)nc2n(C2CCCC2)c1=O [Palbociclib] + Cc1cc(Nc2cc(N3CCN(C)CC3)nc(Sc3ccc(NC(=O)C4CC4)cc3)n2)n[nH]1 [Tozasertib] (partner 0.1 µM)
Summary of the method: as §1

Palbociclib + Decitabine = compound: CC(=O)c1c(C)c2cnc(Nc3ccc(N4CCNCC4)cn3)nc2n(C2CCCC2)c1=O [Palbociclib] + Nc1ncn([C@H]2C[C@H](O)[C@@H](CO)O2)c(=O)n1 [Decitabine] (partner 2 µM)
Summary of the method: as §1

Row | Cell Line | relative viability (Palbociclib + Trametinib; first compound 0.01 µM) | relative viability (Palbociclib + Trametinib; first compound 0.03162 µM) | relative viability (Palbociclib + Trametinib; first compound 0.1 µM) | relative viability (Palbociclib + Trametinib; first compound 0.3162 µM) | relative viability (Palbociclib + Trametinib; first compound 1 µM) | relative viability (Palbociclib + Navitoclax; first compound 0.01 µM) | relative viability (Palbociclib + Navitoclax; first compound 0.03162 µM) | relative viability (Palbociclib + Navitoclax; first compound 0.1 µM) | relative viability (Palbociclib + Navitoclax; first compound 0.3162 µM) | relative viability (Palbociclib + Navitoclax; first compound 1 µM) | relative viability (Palbociclib + Tozasertib; first compound 0.01 µM) | relative viability (Palbociclib + Tozasertib; first compound 0.03162 µM) | relative viability (Palbociclib + Tozasertib; first compound 0.1 µM) | relative viability (Palbociclib + Tozasertib; first compound 0.3162 µM) | relative viability (Palbociclib + Tozasertib; first compound 1 µM) | relative viability (Palbociclib + Decitabine; first compound 0.01 µM) | relative viability (Palbociclib + Decitabine; first compound 0.03162 µM) | relative viability (Palbociclib + Decitabine; first compound 0.1 µM) | relative viability (Palbociclib + Decitabine; first compound 0.3162 µM) | relative viability (Palbociclib + Decitabine; first compound 1 µM)
1 | 201T | 0.733 | 0.684 | 0.71 | 0.692 | 0.609 | 1.22 | 1.2 | 1.08 | 1.08 | 1.01 | 0.984 | 0.906 | 0.914 | 0.797 | 0.614 | 0.827 | 0.836 | 0.836 | 0.834 | 0.665
2 | A549 | – | – | – | – | – | 1.09 | 0.904 | 0.667 | 0.515 | 0.335 | – | – | – | – | – | 0.269 | – | 0.245 | 0.274 | 0.302
3 | A-427 | 0.846 | 0.703 | 0.628 | 0.613 | 0.587 | 0.978 | 0.941 | 0.869 | 0.874 | 0.656 | 0.203 | 0.205 | 0.224 | 0.227 | 0.209 | 0.6 | 0.581 | 0.489 | 0.539 | 0.519
4 | ABC-1 | – | – | – | – | – | – | – | – | – | – | 0.161 | 0.184 | 0.18 | 0.215 | 0.217 | 0.948 | 1.03 | 1.23 | 0.978 | 0.873
5 | BEN | 1.05 | 0.949 | 0.553 | 0.873 | 0.598 | 0.0758 | 0.0563 | 0.0761 | 0.0645 | 0.0615 | 0.563 | 0.429 | 0.541 | 0.608 | 0.697 | 0.692 | 0.521 | 0.596 | 0.68 | 0.422
6 | CAL-12T | 0.437 | 0.316 | 0.207 | 0.204 | 0.166 | 1.23 | 1.01 | 0.896 | 0.848 | 0.767 | 0.294 | 0.307 | 0.305 | 0.259 | 0.271 | – | – | – | – | –
7 | COR-L23 | 0.666 | 0.521 | 0.362 | 0.434 | 0.209 | 0.977 | 0.759 | 0.681 | 0.544 | 0.477 | 0.197 | 0.146 | 0.16 | 0.157 | 0.124 | 0.414 | 0.369 | 0.322 | 0.363 | 0.33
8 | COR-L 105 | 0.477 | 0.435 | 0.36 | 0.407 | 0.389 | 0.943 | 0.808 | 0.669 | 0.586 | 0.401 | 0.379 | 0.335 | 0.341 | 0.308 | 0.318 | 0.777 | 0.629 | 0.554 | 0.604 | 0.452
9 | Calu-6 | – | – | – | – | – | 0.863 | 0.792 | 0.683 | 0.549 | 0.479 | – | – | – | – | – | – | – | – | – | –
10 | ChaGo-K-1 | 0.852 | – | 0.874 | 0.939 | 0.954 | 1.22 | 0.463 | 1.08 | 1.09 | 1.18 | 0.218 | 0.21 | 0.25 | 0.225 | 0.223 | 0.517 | – | 0.554 | 0.522 | 0.518
11 | EBC-1 | – | – | – | – | – | 0.363 | 0.367 | 0.283 | 0.215 | 0.195 | – | – | – | – | – | – | – | – | – | –
12 | EKVX | 0.3 | – | 0.247 | 0.251 | 0.244 | 1.11 | 0.826 | 0.755 | 0.764 | 0.476 | 0.366 | 0.396 | 0.341 | 0.398 | 0.311 | 0.383 | – | 0.281 | 0.307 | 0.293
13 | EMC-BAC-2 | 0.815 | 0.797 | 0.718 | 0.694 | 0.512 | 1.16 | 1.07 | 1.06 | 0.953 | 0.731 | 0.24 | 0.298 | 0.277 | 0.285 | 0.29 | 1.02 | 0.818 | 0.869 | 0.783 | 0.604
14 | EPLC-272H | 0.286 | – | 0.268 | 0.244 | 0.25 | 1.21 | – | 1.06 | 1.06 | 0.833 | 0.326 | – | 0.331 | 0.339 | 0.42 | 0.4 | – | 0.322 | 0.309 | 0.324
15 | H3255 | 0.606 | 0.588 | 0.539 | 0.48 | 0.412 | 0.632 | 0.512 | 0.406 | 0.567 | 0.338 | 0.702 | 0.613 | 0.522 | 0.591 | 0.309 | 0.733 | 0.514 | 0.522 | 0.525 | 0.384
16 | HARA | 0.654 | 0.545 | 0.763 | 0.627 | 0.338 | 1.15 | 1.11 | 0.997 | 0.91 | 0.662 | 0.108 | – | 0.0705 | 0.102 | 0.0769 | 0.699 | 0.474 | 0.418 | 0.319 | 0.449
17 | HCC-15 | 0.409 | – | 0.325 | 0.37 | 0.304 | 0.672 | – | 0.622 | 0.641 | 0.529 | 0.454 | – | 0.38 | 0.372 | 0.343 | 0.662 | – | 0.535 | 0.523 | 0.498
18 | HCC-44 | 1.07 | 1.1 | 1.02 | 0.987 | 1.1 | 0.948 | 0.953 | 1.03 | 0.99 | 1.02 | 0.871 | 0.781 | 1.1 | 1.1 | 1.11 | 0.944 | 0.866 | 0.948 | 0.873 | 1
19 | HCC-78 | 0.869 | 0.62 | 0.524 | 0.531 | 0.374 | 0.812 | 0.473 | 0.382 | 0.447 | 0.201 | 0.451 | 0.383 | 0.319 | 0.354 | 0.334 | 0.651 | 0.629 | 0.773 | 0.694 | 0.429
